Results reported in patent publication US20250076288A1, “STABILIZED PEPTIDES FOR BIOMARKER DETECTION” (Dana-Farber Cancer Institute, Inc., priority 2018, published 2025).
Bridges are numbered along the chain shown (N, C = ends). Where no end group is shown, it is not given here. [ ]: non-standard residue; d: D form. The star is where a group is joined. Biotin = O=C1N[C@H]2[C@H](CS[C@H]2CCCCC(=O)*)N1; S5 = C=CCCC[C@](C)(N)C(=O)O; Nle = CCCC[C@H](N)C(=O)O

Tests used:
actin [1] = experiment: Visualization of actin in U2OS cells with TAMRA- and biotin-labeled stapled peptides; format: cell-based
actin filaments [2] = experiment: Staple scan of TAMRA-tagged stapled Abp140 peptides: actin binding over time by fluorescence microscopy in C2C12 cells; format: cell-based; details: C2C12 mouse myoblast cells, TAMRA-tagged peptides (b)-(g) compared
Description: As a proof of concept, hydrocarbon staples were introduced at different locations in a peptide with known binding attributes for a target protein in order to identify stapled peptides with enhanced stability, cell penetrance, and that retain or enhance target binding. As shown in FIG. 1 (row (a)), a peptide composed of 17 amino acids from the N-terminus of the S. cerevisiae Abp 140 protein that binds to actin filaments was chosen for modification. In the native protein, this peptide has an alpha-helical structure that is a recognition motif for actin. At least one all-hydrocarbon staple was introduced at various locations of the peptide to stabilize the alpha-helical recognition motif to produce stapled peptides markers for actin (see rows (b)-(g) in FIG. 1; the location of hydrocarbon staples in the peptide sequence is demarcated by an X, wherein X is(S)-2-(4′-pentenyl)alanine). […] After 3 hours of incubation, cells were washed with PBS to remove extra peptide reagent and fluorescence microscopy was then used to assess actin binding by the peptides, and to determine overall peptide stability. […] The stapled peptide that retained actin binding over the longest period of time, as determined by fluorescence in cells, was selected as having hydrocarbon staple(s) at the optimal sequence locations for improving peptide stability for biomarker detection.

actin filaments [3] = experiment: Labeling of actin filaments in live C2C12 cells, confocal microscopy; format: cell-based, mouse; details: 10 μM, room temperature, 2 hours, then 50 μM chloroquine for 30 minutes
Procedure: To determine if stabilized peptides can be used to detect biomarkers in live cells, stapled peptide (g) (see FIG. 1, row (g)) was used to label actin filaments in mouse myoblast cells (C2C12 cell line, ATCC® CRL-1772™). Initially, cells were seeded at a density of 10,000 cells/well in 96 well plates in DMEM media and incubated overnight at 37° C. […] After washing the cells with phosphate-buffered saline (PBS), Hoechst DNA dye was then added to the cells, which were further incubated at room temperature for 30 minutes before being washed again to remove extra dye. Afterwards, confocal microscopy was used to determine the intracellular localization of the fluorescent-tagged stapled peptide.
This technology can be applied for, e.g., to FACS and other fluorescent high-throughput screening methods to for example detect overexpression of biomarkers in fixed and living cells.

actin [4] = experiment: Labeling of actin in live zebrafish, confocal microscopy; format: in vivo; details: 10 μM, room temperature, 2 hours, then 50 μM chloroquine for 30 minutes; skin; FIG. 9
Procedure: In a further application, a lead TAMRA-labeled stapled actin-binding peptide was incubated with live zebrafish (10 μM, room temperature, 2 hours), followed by treatment with 50 μM chloroquine for 30 minutes to achieve complete endosomal release and was immediately imaged by confocal microscopy (FIG. 9).

actin [5] = experiment: Actin visualization in fixed murine tissues; format: cell-based, mouse; details: fixed murine heart, lower extremity and tongue, FIG. 5
actin filaments [6] = experiment: Labeling of actin filaments in fixed C2C12 cells, confocal microscopy; format: cell-based, mouse
Procedure: Stapled peptide (g) was also used to detect actin filaments in fixed C2C12 cells. Cells were seeded in 96 well plates at a density of 10,000 cells/well in DMEM media and incubated overnight at 37° C. The cells were fixed using 4% paraformaldehyde in PBS for 20 minutes and then permeabilized using 0.3% Triton-X100 in PBS for 10 minutes. This was followed by the addition of Hoechst DNA dye to the cells to stain nuclei, and FITC-phalloidin (Acti-stain™ 488 phalloidin, Cat. #PHDG1-A, Cytoskeleton, Inc.) to label F actin. After rinsing the cells with PBS, serial dilutions of each peptide were transferred to the cells, and the cells were incubated at 37° C. for 30 minutes. Confocal microscopy was then used to detect the cellular localization of the stapled peptide (g) fused to a fluorescent tag.

Substance: (h): stapled actin-binding peptide with alanine substitution and Lysine(Biotin) ([Nle]GVADLIKKFE[S5]IAK[S5]EK(Biotin); staple 12-16; not fully specified)
- actin detection in U2OS cells, indirect detection with fluorescently-labeled streptavidin (actin [1]; biotin label, fixed cells, FIG. 4B): robust actin detection was observed

Substance: peptide (f): hydrocarbon-stapled Abp140 N-terminal 17-mer, TAMRA-tagged; selected as most stable stapled peptide marker for actin ([Nle]GVADLIKKFE[S5]ISK[S5]EK(TAMRA); staple 12-16)
- period of time over which actin binding is retained, as determined by fluorescence in cells (actin filaments [2]): exhibited actin binding for the longest period of time

Substance: peptide (g): peptide (f) with a serine to alanine substitution (S14A); Lysine(TAMRA)-tagged stapled actin-binding peptide ([Nle]GVADLIKKFE[S5]IAK[S5]EK(TAMRA); staple 12-16)
- cell entry and labeling of actin filaments in live cells (actin filaments [3]): entered live cells and selectively bound to and labeled actin filaments
- labeling of actin in live zebrafish (actin [4]): can label actin in the skin of live zebrafish
- actin visualization in mouse tissues (actin [5]): robust actin visualization in heart, lower extremity, and tongue specimens
- labeling of actin filaments in fixed cells (actin filaments [6]; C2C12 cells fixed with 4% paraformaldehyde, permeabilized with 0.3% Triton-X100, confocal microscopy): selectively bound to and labeled actin filaments
- co-localization with the FITC-phalloidin-labeled actin filament network (actin filaments [6]; fixed C2C12 cells): co-localized with the actin filament network
- actin detection in U2OS cells, direct fluorescence detection (actin [1]; TAMRA label, FIG. 4A): robust actin detection was observed
